# Assay results reported in article PMC12767106, “In Situ Assembly of Transformable Monopeptide on Activated Neutrophils Attenuates NETs‐Induced Hepatocellular Carcinoma Metastasis by Disrupting NE Nuclear Translocation” (Advanced Science, 2025).
# System: Hepa1-6/luc liver and lung metastasis
# Test: Liver and lung metastasis model
# Format: in vivo, mouse
# Conditions: Hepa1-6/luc cells via spleen or tail vein, 300 µM in 200 µL i.v. every two days, 16 days, n = 5
# Text: Submitted to Advanced Science
# effector T cells (CD45+CD3+CD8+)/(CD45+CD3+CD4+), tumor cells were stained with anti-CD45-FITC
# (Biolegend), anti-CD3ε-PerCP-Cy5.5 (Biolegend), anti-CD4-APC (Biolegend), and anti-CD8a-PE (Biolegend)
# antibodies according to the standard protocol. For evaluation of NK cells (CD45+CD3-NK1.1+), tumor cells
# were stained with anti-CD45-FITC (Biolegend), anti-CD3-PE (Biolegend) and anti-CD49b-APC (Biolegend)
# antibodies and examined using flow cytometry. For MDSCs (CD45+CD11b+Gr-1+) analysis, tumor cells were
# stained with anti-CD45-FITC, anti-CD11b-BrilliantViolet-510 (Biolegend), anti -F4/80-PE (Biolegend), and
# anti-Gr-1-APC (Biolegend) antibodies for flow cytometry examination (BD FACS Canto SORP, USA). The
# software FlowJo V10.6.2 was used for data analysis. To further explore the immunomodulatory effects of FTP-
# NPs. Tumor tissues were harvested for immune profiling. Plasma cytokine levels, including IL-6, IL-10, and
# TNF-α, were measured using commercially available ELISA kits to assess the immune activation induced by
# Experimental liver and lung metastasis model
# Six-week-old male C57BL/6J mice (20–25 g) were used to establish liver and lung metastasis models. Hepa1-
# 6/luc cells (1 × 10^6 cells) were injected into the spleen or tail vein of the mice to induce liver or lung
# metastasis, respectively. For the liver metastasis model, Hepa1-6/luc cells were injected into the spleen, allowing
# tumor cells to circulate and establish metastases in the liver. For the lung metastasis model, Hepa1-6/luc cells
# were injected via the tail vein, leading to the formation of metastases in the lungs. Following cell implantation, […]
# euthanized, and metastases were assessed macroscopically. […]
# injecting D-Luciferin (150 mg/kg) intraperitoneally, and tumor burden was quantified using the IVIS Spectrum […]
# conducted, and metastatic lesions were assessed under an inverted microscope (Axiovert 200, Zeiss, Germany). […]
# 300 μM per injection) for mice. […] (b) Fluorescence quantized chart […]
# experiments. Statistical significance was calculated by one-way ANOVA, *p < 0.050.(c, d) Photographs of lung […]
smiles,measurement,value
"CC(C)(C)C(=O)Oc1ccc(S(=O)(=O)Nc2ccccc2C(=O)NCC(=O)O)cc1 [NEi, Sivelestat, reference compound]","liver and lung metastasis (bioluminescent signals, number of metastatic foci)",obvious metastases
